The values below come from US20260007728A1, “COMBINATION THERAPIES INVOLVING L-ASPARAGINASE” (Jazz Pharmaceuticals Ireland Ltd., priority 2022, published 2026).

The test system of test [1] is DLBCL lines. The test is described as follows: Single-agent sensitivity of lymphoma lines (dose-response, 72 hrs incubation). Format: cell-based. Particulars: ABC, GCB, and THL lines; read-out: sensitivity to carfilzomib (range). From the text:
Sensitivity to asparaginase and 11 chemotherapeutic agents (carfilzomib, doxorubicin, rapamycin, ibrutinib, cyclophosphamide, prednisolone, metformin, venetoclax, navitoclax, rituximab and vincristine) determined in 8 lymphoma lines, including diffuse large B-cell and Burkitt lymphomas. The investigated lymphoma lines are sensitive to asparagine depletion within the clinically achievable range. Expression of decisive genes (BCL2, BCL6, BCL2L1, MYC, ASNS) determined in 8 lymphoma lines (FIGS. 11 and 12). Increased expression of BCL2 served as marker for resistance of ibrutinib and rapamycin in triple hit lymphoma (FIGS. 11 and 12). Increased expression of ASNS served as marker for resistance of carfilzomib and asparaginase in Burkitt lymphoma (FIGS. 11 and 12). Identified combination agents that enhanced asparaginase activity in vitro include synergy of JZP458 and rituximab, venetoclax and ibrutinib in lymphoma lines (DLBCL) (see FIG. 13, FIG. 15, and FIG. 17). […] In vivo tolerability study of long acting Erwinia Asparaginase.
ABC-DLBCL lines and one of GCB-DLBCL lines are very sensitive to JZP458 in the range of 0.011-7.3 IU/mL. Dose-response curve overlays-72 hrs incubation.

Test [2] relates to ASNS expression in Burkitt lymphoma lines. The test is described as follows: qPCR gene expression after compound treatment. Format: cell-based. On the procedure: Cell Culture: Cell culture medium: RPMI 1640 medium (#2198761, Thermo Fisher) supplemented with 10% fetal calf serum (#S00AZ, BioWest) and 1% pen/strep (#15140-122, Thermo Fisher). At day-1, 900 μl cell suspension was seeded in 24-well plates (#662165, Greiner Bio-One) at a density of 128,000 cells/well. At day 0, 100 μl compound was added in three different concentrations to reach a final concentration of 0.316×IC50, 1×IC50, and 3.16×IC50 (unless indicated otherwise). To the control samples, 100 μl 20 mM HEPES+3.16% DMSO was added instead of compound. When the compound is prepared in HEPES instead of DMSO, 20 mM HEPES without DMSO was added to the cells. The cells were collected at 6 hours, 24 hours and 48 hours after addition of the compound and were transferred to a 96-well deep well plate and centrifuged for 5 min at 340×g. Prior to the collection of the cells microscopic pictures were taken from the untreated (control) cells. After removing the medium, 200 μl RNA protect (#76526, Qiagen) was added to the cell pellet and the cells were stored at −80° C.
RNA isolation: Total RNA was isolated with the SV96 Total RNA Isolation System kit (#Z3505, Promega) according to manufacturer's instructions. The procedure includes a ‘RNAse free DNAse’ gDNA removal step.
Determining the RNA concentration: RNA concentrations were determined with the RiboGreen (#R11490, Thermo Fisher) kit according to manufacturer's instructions.
cDNA synthesis: RNA was reverse transcribed into cDNA using the Quantitect Reverse Transcript Kit (#205313, Qiagen) according to manufacturer's instructions. This procedure includes a second ‘RNAse free DNAse’ gDNA removal step, ensuring the complete removal of gDNA from the samples. For each time point (6 h, 24 h, or 48 h) identical volumes of RNA were used for cDNA synthesis. After synthesis, cDNA is diluted with nuclease free water to obtain approximately similar cDNA concentrations per sample.
qPCR: 1) 50° C. for 10 min (Uracil-DNA glycosylase ([…]) step to remove all potential traces of amplicon DNA from previous qPCRs); 2) 5 min UDP inactivation/denaturation at 95° C.; 3) 40 cycles of 10s denaturation at 95° C., 20s annealing at 60° C., and 30s extension at 72° C.; and 4) Dissociation curve to determine the melting temperature of the qPCR amplicon.
qPCR Data Analysis: Cq and Tm raw data values are determined by the BioRad CFX manager software from the PCR machine. For every PCR sample that produced a Cq value the corresponding melting temperature of the PCR amplicon (Tm) was checked to identify samples that generated dual or a specific PCR products. A PCR product is regarded a specific when its Tm is >0.5° C. different from that the Tm of the specific PCR amplicon, in this case the Cq value is removed and not used for further data analysis. Cq values were than normalized by subtracting the (mean) Cq value of the two housekeeping genes (ACTB & RPS18) from the Cq value of the gene of interest. The normalized value is called DCq. The Cq difference between sample and the control (DDCq) was calculated by subtracting DCq control from DCq sample. The fold difference in expression between the control (no compound) and the compound treated sample is than calculated according the 2^-DDCq method.
In general terms: In qPCR the cycle at which signal appears reflects the starting amount.

As to `CC(C)C[C@H](NC(=O)[C@H](CCc1ccccc1)NC(=O)CN1CCOCC1)C(=O)N[C@@H](Cc1ccccc1)C(=O)N[C@@H](CC(C)C)C(=O)[C@@]1(C)CO1` [carfilzomib, reference compound], the IC50 in test [1] lay in the range of 1.3 to 7.2 nM. For the same compound, in test [2] (Burkitt lymphoma lines), the “change of ASNS expression” value is given as “significantly increase”. For the same compound, the “increase of ASNS expression” value in test [2] (Burkitt lymphoma lines (BJAB, RAJI, RAMOS), after treatment) amounted to 1.25 fold.
